This passage reports IC50 results from patent publication US8592629B2, “Sulfonamide derivatives as Nav 1.7 inhibitors” (Pfizer Limited, priority 2010, dated 2013).

Each structure is given as a SMILES string.

T1 sequence (Q15858 whole entry): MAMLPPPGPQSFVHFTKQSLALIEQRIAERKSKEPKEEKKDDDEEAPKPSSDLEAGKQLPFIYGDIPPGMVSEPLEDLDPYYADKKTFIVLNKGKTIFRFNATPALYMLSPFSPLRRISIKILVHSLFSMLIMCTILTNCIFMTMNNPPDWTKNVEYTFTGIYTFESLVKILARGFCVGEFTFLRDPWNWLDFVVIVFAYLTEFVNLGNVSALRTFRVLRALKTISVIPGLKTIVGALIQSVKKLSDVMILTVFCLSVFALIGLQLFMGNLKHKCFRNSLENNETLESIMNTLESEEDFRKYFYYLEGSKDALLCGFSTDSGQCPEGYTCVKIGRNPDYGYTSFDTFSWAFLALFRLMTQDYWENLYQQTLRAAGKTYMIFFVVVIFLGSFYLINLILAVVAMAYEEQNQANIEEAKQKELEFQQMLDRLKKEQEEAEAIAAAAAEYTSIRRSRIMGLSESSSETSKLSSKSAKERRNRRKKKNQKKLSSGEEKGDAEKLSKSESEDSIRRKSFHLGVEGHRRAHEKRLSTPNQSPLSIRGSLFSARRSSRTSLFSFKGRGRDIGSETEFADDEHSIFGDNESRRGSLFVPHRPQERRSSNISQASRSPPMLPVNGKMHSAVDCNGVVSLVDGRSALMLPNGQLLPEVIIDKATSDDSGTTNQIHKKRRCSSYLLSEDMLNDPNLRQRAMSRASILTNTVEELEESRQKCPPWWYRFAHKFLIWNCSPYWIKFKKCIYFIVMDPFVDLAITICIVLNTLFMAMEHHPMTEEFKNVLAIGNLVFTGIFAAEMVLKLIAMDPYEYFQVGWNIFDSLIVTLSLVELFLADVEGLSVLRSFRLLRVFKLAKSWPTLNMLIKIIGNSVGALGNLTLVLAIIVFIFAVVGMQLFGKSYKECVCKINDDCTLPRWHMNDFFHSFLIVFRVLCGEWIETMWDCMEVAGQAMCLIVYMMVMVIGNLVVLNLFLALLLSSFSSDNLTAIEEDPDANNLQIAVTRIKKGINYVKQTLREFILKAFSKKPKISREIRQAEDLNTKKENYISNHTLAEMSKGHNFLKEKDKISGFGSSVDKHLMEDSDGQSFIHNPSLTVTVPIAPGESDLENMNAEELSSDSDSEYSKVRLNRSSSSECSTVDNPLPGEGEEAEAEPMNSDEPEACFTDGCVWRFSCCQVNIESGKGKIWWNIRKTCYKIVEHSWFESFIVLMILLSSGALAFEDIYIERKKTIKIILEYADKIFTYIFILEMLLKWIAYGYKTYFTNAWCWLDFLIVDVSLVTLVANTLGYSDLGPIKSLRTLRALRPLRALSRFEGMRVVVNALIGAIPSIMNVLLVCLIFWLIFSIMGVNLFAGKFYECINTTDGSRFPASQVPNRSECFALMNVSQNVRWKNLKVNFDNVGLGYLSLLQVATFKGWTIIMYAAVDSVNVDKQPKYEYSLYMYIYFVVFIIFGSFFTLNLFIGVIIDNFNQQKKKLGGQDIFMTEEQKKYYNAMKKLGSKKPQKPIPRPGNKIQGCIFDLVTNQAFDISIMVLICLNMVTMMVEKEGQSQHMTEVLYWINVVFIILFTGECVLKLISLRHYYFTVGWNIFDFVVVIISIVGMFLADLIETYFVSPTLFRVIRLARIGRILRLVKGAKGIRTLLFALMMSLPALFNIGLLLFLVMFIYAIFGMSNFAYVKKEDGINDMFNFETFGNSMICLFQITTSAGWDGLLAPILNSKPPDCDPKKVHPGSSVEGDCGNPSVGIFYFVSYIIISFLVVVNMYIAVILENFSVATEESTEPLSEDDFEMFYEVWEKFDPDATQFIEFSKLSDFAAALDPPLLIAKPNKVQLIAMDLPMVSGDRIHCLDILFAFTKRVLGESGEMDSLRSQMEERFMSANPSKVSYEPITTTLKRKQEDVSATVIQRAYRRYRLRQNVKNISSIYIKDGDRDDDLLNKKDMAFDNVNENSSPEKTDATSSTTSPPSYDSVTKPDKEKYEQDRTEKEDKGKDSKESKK

This assay has as its target T1, Nav1.7 (or SCN9A) channel (Homo sapiens, UniProt Q15858).
T1 construct: expressed in transfected cells
The assay can be described thus: Nav1.7 (hSCN9A) block in HEK cells, PatchXpress 7000 automated electrophysiology, estimated IC50 (EIC50). It is filed as cell-based. Particulars: PatchXpress assay; HEK cells stably transfected with hSCN9A, voltage-clamped at V1/2 of inactivation. The protocol:
The ability of the compounds of formula (I) to block the Nav1.7 (or SCN9A) channel were measured using the assay described below.
Human Embryonic Kidney (HEK) cells were transfected with an hSCN9A construct using lipofectamine reagent (Invitrogen), using standard techniques. Cells stably expressing the hSCN9A constructs were identified by their resistance to G-418 (400 μg/ml). Clones were screened for expression using the whole-cell voltage-clamp technique.
HEK cells stably transfected with hSCN9A were maintained in DMEM medium supplemented with 10% heat-inactivated fetal bovine serum and 400 μg/ml G-418 in an incubator at 37° C. with a humidified atmosphere of 10% CO2. For HTS, cells were harvested from flasks by trypsinization and replated in an appropriate multi-well plate (typically 96 or 384 wells/plate) such that confluence would be achieved within 24 hours of plating. For electrophysiological studies, cells were removed from the culture flask by brief trypsinization and re-plated at low density onto glass cover slips. Cells were typically used for electrophysiological experiments within 24 to 72 hours after plating.
HEK cells stably transfected with hSCN9A were viewed under Hoffman contrast optics and placed in front of an array of flow pipes emitting either control or compound-containing extracellular solutions. All compounds were dissolved in dimethyl sulfoxide to make 10 mM stock solutions, which were then diluted into extracellular solution to attain the final concentrations desired. […] The voltage-dependence of inactivation was determined by applying a series of depolarizing prepulses (8 sec long in 10 mV increments) from a negative holding potential. The voltage was then immediately stepped to 0 mV to assess the magnitude of the sodium current. Currents elicited at 0 mV were plotted as a function of prepulse potential to allow estimation of the voltage at which 50% of the channels were inactivated (midpoint of inactivation or V1/2). Compounds were tested for their ability to inhibit hSCN9A sodium channels by activating the channel with a 20 msec voltage step to 0 mV following an 8 second conditioning prepulse to the empirically determined V1/2. Compound effect (% inhibition) was determined by difference in current amplitude before and after application of test compounds. For ease of comparison, “estimated IC-50” (EIC50) values were calculated from single point electrophysiology data by the following equation, (tested concentration, uM) X (100-% inhibition/% inhibition). Inhibition values <20% and >80% were excluded from the calculation.
Electrophysiological assays were conducted with PatchXpress 7000 hardware and associated software (Molecular Devices Corp). All assay buffers and solutions were identical to those used in conventional whole-cell voltage clamp experiments described above. hSCN9A cells were grown as above to 50%-80% confluency and harvested by trypsinization. Trypsinized cells were washed and resuspended in extracellular buffer at a concentration of 1×10^6 cells/ml. The onboard liquid handling facility of the PatchXpress was used for dispensing cells and application of test compounds. Determination of the voltage midpoint of inactivation was as described for conventional whole-cell recordings. Cells were then voltage-clamped to the empirically determined V1/2 and current was activated by a 20 msec voltage step to 0 mV.
Compounds of the Examples were tested in the assays described above and found to have the Nav1.7 EIC50 (μM) values specified in the table below. All data are derived from the PatchXpress assay unless explicitly stated otherwise.
As for `CO[C@@H]1CCCN(c2ncc(Oc3cc(F)c(C(=O)NS(C)(=O)=O)cc3F)cc2Cl)C1` [Example 128, 4-({5-chloro-6-[(3R)-3-methoxypiperidin-1-yl]pyridin-3-yl}oxy)-2,5-difluoro-N-(methylsulfonyl)benzamide], the half-maximal inhibitory concentration (IC50) is 2400 nM.
Take `CS(=O)(=O)NC(=O)c1cc(Cl)c(Oc2cnc(OCC(F)F)c(Cl)c2)cc1F` [Example 52, 5-chloro-4-{[5-chloro-6-(2,2-difluoroethoxy)pyridin-3-yl]oxy}-2-fluoro-N-(methylsulfonyl)benzamide]: the IC50 was 160 nM.
Turning to `CS(=O)(=O)NC(=O)c1cc(Cl)c(Oc2cnc(C3CC3)c(OC(F)F)c2)cc1F` [Example 106, 5-chloro-4-(6-cyclopropyl-5-(difluoromethoxy)pyridin-3-yloxy)-2-fluoro-N-(methylsulfonyl)benzamide], the IC50 is 1100 nM.
For `CS(=O)(=O)NC(=O)c1cc(Cl)c(Oc2cnc(OCCC(F)(F)F)c(Cl)c2)cc1F` [Example 13, 5-Chloro-4-{[5-chloro-6-(3,3,3-trifluoropropoxy)pyridin-3-yl]oxy}-2-fluoro-N-(methylsulfonyl)benzamide] the value was 50 nM.
For `CC(C)Oc1ncc(Oc2cc(F)c(C(=O)NS(C)(=O)=O)cc2Cl)cc1C#N` [Example 8, 5-Chloro-4-[(5-cyano-6-isopropoxypyridin-3-yl)oxy]-2-fluoro-N-(methylsulfonyl)benzamide] the value was 240 nM; for `Cc1cc2ccccc2nc1Oc1cc(F)c(C(=O)NS(C)(=O)=O)cc1F` [Example 196, 2,5-difluoro-4-[(3-methylquinolin-2-yl)oxy]-N-(methylsulfonyl)benzamide], > 3000 nM; for `CC(C)(Oc1ncc(Oc2cc(F)c(C(=O)NS(C)(=O)=O)cc2Cl)cc1Cl)C(F)(F)F` [Example 76, 5-chloro-4-{[5-chloro-6-(2,2,2-trifluoro-1,1-dimethylethoxy)pyridin-3-yl]oxy}-2-fluoro-N-(methylsulfonyl)benzamide], 9.4 nM.
For `CC(C)Oc1ncc(Sc2cc(F)c(C(=O)NS(C)(=O)=O)cc2Cl)cc1Cl` [Example 94, 5-chloro-4-[(5-chloro-6-isopropoxypyridin-3-yl)thio]-2-fluoro-N-(methylsulfonyl)benzamide] the value was 830 nM; for `CN(c1ncc(Oc2cc(F)c(C(=O)NS(C)(=O)=O)cc2F)cc1Cl)C1CCOC1` (centres unmarked) [Example 139, 4-({5-chloro-6-[methyl(tetrahydrofuran-3-yl)amino]pyridin-3-yl}oxy)-2,5-difluoro-N-(methylsulfonyl)benzamide], 2600 nM; for `COCC1CCCN1c1ncc(Oc2cc(F)c(C(=O)NS(C)(=O)=O)cc2F)cc1Cl` (centres unmarked) [Example 121, 4-({5-chloro-6-[2-(methoxymethyl)pyrrolidin-1-yl]pyridin-3-yl}oxy)-2,5-difluoro-N-(methylsulfonyl)benzamide], 680 nM.
`CS(=O)(=O)NC(=O)c1cc(F)c(Oc2cnc(N3CCC(F)(F)C3)c(Cl)c2)cc1F` [Example 123, 4-{[5-chloro-6-(3,3-difluoropyrrolidin-1-yl)pyridin-3-yl]oxy}-2,5-difluoro-N-(methylsulfonyl)benzamide]: the IC50 was 120 nM.
For `CS(=O)(=O)NC(=O)c1cc(F)c(Oc2ccc(C(F)(F)F)cn2)cc1F` [Example 194, 2,5-difluoro-N-(methylsulfonyl)-4-{[5-(trifluoromethyl)pyridin-2-yl]oxy}benzamide] the value was 3100 nM.
`[2H]C(C)(C)Oc1ncc(Oc2cc(F)c(C(=O)NS(C)(=O)=O)cc2F)cc1Cl` [Example 41, 4-({5-chloro-6-[2-d1-propan-2-yloxy]pyridin-3-yl}oxy)-2,5-difluoro-N-(methylsulfonyl)benzamide]: the IC50 was 190 nM.
`CS(=O)(=O)NC(=O)c1cc(Cl)c(Oc2cnc(C3CC3)c(OC(F)(F)F)c2)cc1F` [Example 110, 5-chloro-4-(6-cyclopropyl-5-(trifluoromethoxy)pyridin-3-yloxy)-2-fluoro-N-(methylsulfonyl)benzamide]: the 50% inhibitory concentration (IC50) is 100 nM.
The value for `COc1ncc(Oc2ccc(C(=O)NS(C)(=O)=O)cc2)cc1Cl` [Example 85, 4-[(5-chloro-6-methoxypyridin-3-yl)oxy]-N-(methylsulfonyl)benzamide] was > 10000 nM.
For `CC(C)Oc1ncc(Oc2cc(F)c(C(=O)NS(C)(=O)=O)cc2F)cc1F` [Example 71, 2,5-difluoro-4-[(5-fluoro-6-isopropoxypyridin-3-yl)oxy]-N-(methylsulfonyl)benzamide] the value was 1700 nM; for `CS(=O)(=O)NC(=O)c1cc(Cl)c(Oc2cnc(OC(CF)CF)c(Cl)c2)cc1F` [Example 53, 5-chloro-4-({5-chloro-6-[2-fluoro-1-(fluoromethyl)ethoxy]pyridin-3-yl}oxy)-2-fluoro-N-(methylsulfonyl)benzamide], 260 nM.
The value for `CC(C)Oc1ncc(Oc2ccc(C(=O)NS(C)(=O)=O)c(F)c2)cc1Cl` [Example 36, 4-[(5-chloro-6-isopropoxypyridin-3-yl)oxy]-2-fluoro-N-(methylsulfonyl)benzamide] was 310 nM.
Regarding `CC(C)(F)COc1ncc(Oc2cc(F)c(C(=O)NS(C)(=O)=O)cc2F)cc1Cl` [Example 63, 4-{[5-chloro-6-(2-fluoro-2-methylpropoxy)pyridin-3-yl]oxy}-2,5-difluoro-N-(methylsulfonyl)benzamide], the 50% inhibitory concentration (IC50) is 160 nM.
For `CS(=O)(=O)NC(=O)c1cc(F)c(Oc2ccc(Cl)c3cccnc23)cc1F` [Example 87, 4-[(5-chloroquinolin-8-yl)oxy]-2,5-difluoro-N-(methylsulfonyl)benzamide] the value was > 3000 nM; for `CS(=O)(=O)NC(=O)c1cc(F)c(Oc2cnc(N3CCCCC3)c(Cl)c2)cc1F` [Example 142, 4-[(5-chloro-6-piperidin-1-ylpyridin-3-yl)oxy]-2,5-difluoro-N-(methylsulfonyl)benzamide], 170 nM; for `CN1CCCC(Nc2ncc(Oc3cc(F)c(C(=O)NS(C)(=O)=O)cc3F)cc2Cl)C1` (centres unmarked) [Example 127, 4-({5-chloro-6-[(1-methylpiperidin-3-yl)amino]pyridin-3-yl}oxy)-2,5-difluoro-N-(methylsulfonyl)benzamide], > 1000 nM.
As for `CC(C)COc1ncc(Oc2ccc(C(=O)NS(C)(=O)=O)cc2C#N)cc1Cl` [Example 1, 4-[(5-Chloro-6-isobutoxypyridin-3-yl)oxy]-3-cyano-N-(methylsulfonyl)benzamide], the concentration for half-maximal inhibition (IC50) was 160 nM.
The value for `CS(=O)(=O)NC(=O)c1cc(F)c(Oc2cnc(N[C@@H]3CCC[C@H]3F)c(Cl)c2)cc1F` [Example 144, 4-[(5-chloro-6-{[(1R,2R)-2-fluorocyclopentyl]amino}pyridin-3-yl)oxy]-2,5-difluoro-N-(methylsulfonyl)benzamide] was 490 nM.
In the case of `CS(=O)(=O)NC(=O)c1cc(F)c(Oc2cnc(N[C@H]3CC[C@H](F)C3)c(Cl)c2)cc1F` [Example 120, 4-[(5-chloro-6-{[(1S,3S)-3-fluorocyclopentyl]amino}pyridin-3-yl)oxy]-2,5-difluoro-N-(methylsulfonyl)benzamide], the IC50 was 660 nM.
For `CS(=O)(=O)NC(=O)c1cc(F)c(Oc2cccn3ccnc23)cc1F` [Example 90, 2,5-difluoro-4-(imidazo[1,2-a]pyridin-8-yloxy)-N-(methylsulfonyl)benzamide], the 50% inhibitory concentration (IC50) is > 3000 nM.
For `CS(=O)(=O)NC(=O)c1cc(F)c(Oc2ccc(Cl)cn2)cc1F` [Example 184, 4-[(5-chloropyridin-2-yl)oxy]-2,5-difluoro-N-(methylsulfonyl)benzamide], the 50% inhibitory concentration (IC50) is 4400 nM.
For `CC(C)Oc1ncc(Oc2ccc(C(=O)NS(C)(=O)=O)cc2)cc1Cl` [Example 84, 4-[(5-chloro-6-isopropoxypyridin-3-yl)oxy]-N-(methylsulfonyl)benzamide] the value was 850 nM; for `CC1CCN(c2ncc(Oc3cc(F)c(C(=O)NS(C)(=O)=O)cc3F)cc2Cl)CC1` [Example 126, 4-{[5-chloro-6-(4-methylpiperidin-1-yl)pyridin-3-yl]oxy}-2,5-difluoro-N-(methylsulfonyl)benzamide], 470 nM.
